Results reported in US7504420B2, “Compounds which inhibit beta-secretase activity and methods of use” (CoMentis, Inc., priority 2005, dated 2009).
Where two headings read alike, the source gives them in different places.

Legend:
[1] = system: Aβ production in Chinese hamster ovary cells that over-express human APP695 with the London and Swedish mutations; assay: Cellular Aβ IC50 determination (Aβ40 sandwich ELISA); details: Cricetulus griseus, CHO, 24 h
memapsin 2 = memapsin 2 (Homo sapiens, UniProt P56817); assay: Inhibition of memapsin 2 catalytic activity (Ki); assay type: biochemical; details: memapsin 2, pH 4, 37° C.
Procedure: Potency of compounds were determined by measurement of their inhibition of memapsin 2 catalytic activity toward a fluorescent substrate. […] Briefly, assays were performed at pH 4, 37° C., by pre-incubation of memapsin 2 enzyme with compound for 20 minutes. Activity measure was initiated by addition of a fluorogenic substrate FS-2 (Bachem Americas, Torrance, Calif.). Fluorescent signal increase over time was measured as a rate of hydrolysis of the peptide substrate. […]

[2] = read-out: Cell, Aβ40, CHO cells over-expressing human APP695 (London and Swedish mutations), 24 h

Chain of memapsin 2 (P56817 46-501): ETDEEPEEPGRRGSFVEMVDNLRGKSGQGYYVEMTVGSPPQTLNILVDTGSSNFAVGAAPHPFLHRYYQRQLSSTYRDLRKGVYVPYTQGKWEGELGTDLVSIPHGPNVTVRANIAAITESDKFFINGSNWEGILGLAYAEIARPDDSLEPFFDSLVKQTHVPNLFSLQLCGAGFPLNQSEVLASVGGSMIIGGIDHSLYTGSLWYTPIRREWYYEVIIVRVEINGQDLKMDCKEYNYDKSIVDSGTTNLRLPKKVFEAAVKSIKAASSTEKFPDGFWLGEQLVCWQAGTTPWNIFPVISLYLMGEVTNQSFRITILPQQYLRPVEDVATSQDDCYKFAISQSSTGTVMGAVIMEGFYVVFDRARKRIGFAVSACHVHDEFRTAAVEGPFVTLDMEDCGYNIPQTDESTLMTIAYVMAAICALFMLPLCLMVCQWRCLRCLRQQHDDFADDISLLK

Structure (SMILES) | IC50 [1, 2] [µM] | Ki (memapsin 2; read-out: M2K) [µM] | IC50 ([1]; read-out: Cell) [µM] | Ki (memapsin 2; M2K) [µM]
COc1cccc(CNCC(O)C(Cc2ccccc2)NC(=O)c2cccc(C(=O)N(C)Cc3csc(C)n3)c2)c1 (centres unmarked) [N1-(3-hydroxy-4-(3-methoxybenzylamino)-1-phenylbutan-2-yl)-N3-methyl-N3-((2-methylthiazol-4-yl)methyl)isophthalamide] | < 1 | < 0.3 | – | –
COc1cccc(CNCC(O)C(Cc2ccccc2)NC(=O)c2cccc(C(=O)N(C)Cc3nc(C)co3)c2)c1 (centres unmarked) [N1-(3-hydroxy-4-(3-methoxybenzylamino)-1-phenylbutan-2-yl)-N3-methyl-N3-((4-methyloxazol-2-yl)methyl)isophthalamide] | – | – | < 1 | < 0.3
COc1ccc(CNCC(O)C(Cc2ccccc2)NC(=O)c2cccc(C(=O)N(C)Cc3nc(C)cs3)c2)cc1 (centres unmarked) [N1-(3-hydroxy-4-(4-methoxybenzylamino)-1-phenylbutan-2-yl)-N3-methyl-N3-((4-methylthiazol-2-yl)methyl)isophthalamide] | 1 to 5 | > 0.501 | – | –
COc1ccc(CCNCC(O)C(Cc2ccccc2)NC(=O)c2cccc(C(=O)N(C)Cc3nc(C)cs3)c2)cc1 (centres unmarked) [N1-(3-hydroxy-4-(4-methoxyphenethylamino)-1-phenylbutan-2-yl)-N3-methyl-N3-((4-methylthiazol-2-yl)methyl)isophthalamide] | 1 to 5 | > 0.501 | – | –
COc1ccc(S(=O)(=O)NCC(O)C(Cc2ccccc2)NC(=O)c2cc(C(=O)NC(C)c3ccccc3)cc(N(C)S(C)(=O)=O)c2)cc1 (centres unmarked) [N1-(3-hydroxy-4-(4-methoxyphenylsulfonamido)-1-phenylbutan-2-yl)-5-(N-methylmethylsulfonamido)-N3-(1-phenylethyl)isophthalamide] | 1 to 5 | > 0.501 | – | –
COc1cccc(CN2CCC(CNCC(O)C(Cc3ccccc3)NC(=O)c3cc(C(=O)NC(C)c4ccccc4)cc(N(C)S(C)(=O)=O)c3)CC2)c1 (centres unmarked) [N1-(3-hydroxy-4-((1-(3-methoxybenzyl)piperidin-4-yl)methylamino)-1-phenylbutan-2-yl)-5-(N-methylmethylsulfonamido)-N3-(1-phenylethyl)isophthalamide] | > 5 | > 0.501 | – | –
CC(NC(=O)c1cc(C(=O)NC(Cc2ccccc2)C(O)CNCC2CCCN2C)cc(N(C)S(C)(=O)=O)c1)c1ccccc1 (centres unmarked) [N1-(3-hydroxy-4-((1-methylpyrrolidin-2-yl)methylamino)-1-phenylbutan-2-yl)-5-(N-methylmethylsulfonamido)-N3-(1-phenylethyl)isophthalamide] | > 5 | > 0.501 | – | –
Cc1csc(CN(C)C(=O)c2cccc(C(=O)NC(Cc3ccccc3)C(O)CNCc3cncc(OCC(C)C)c3)c2)n1 (centres unmarked) [N1-(3-hydroxy-4-((5-isobutoxypyridin-3-yl)methylamino)-1-phenylbutan-2-yl)-N3-methyl-N3-((4-methylthiazol-2-yl)methyl)isophthalamide] | < 1 | < 0.3 | – | –
Cc1csc(CN(C)C(=O)c2cccc(C(=O)NC(Cc3ccccc3)C(O)CNCc3cncc(CC(C)C)c3)c2)n1 (centres unmarked) [N1-(3-hydroxy-4-((5-isobutylpyridin-3-yl)methylamino)-1-phenylbutan-2-yl)-N3-methyl-N3-((4-methylthiazol-2-yl)methyl)isophthalamide] | < 1 | < 0.3 | – | –
COc1cncc(CNCC(O)C(Cc2ccccc2)NC(=O)c2cccc(C(=O)N(C)Cc3nc(C)cs3)c2)c1 (centres unmarked) [N1-(3-hydroxy-4-((5-methoxypyridin-3-yl)methylamino)-1-phenylbutan-2-yl)-N3-methyl-N3-((4-methylthiazol-2-yl)methyl)isophthalamide] | < 1 | < 0.3 | – | –
COc1ccc(CCNCC(O)C(Cc2ccccc2)NC(=O)c2cc(C(=O)NC(C)c3ccccc3)cc(N(C)S(C)(=O)=O)c2)cc1OC (centres unmarked) [N1-(4-(3,4-dimethoxyphenethylamino)-3-hydroxy-1-phenylbutan-2-yl)-5-(N-methylmethylsulfonamido)-N3-(1-phenylethyl)isophthalamide] | < 1 | < 0.3 | – | –
Cc1csc(CN(C)C(=O)c2cccc(C(=O)NC(Cc3ccccc3)C(O)CNCc3cccc(OC(F)F)c3)c2)n1 (centres unmarked) [N1-(4-(3-(difluoromethoxy)benzylamino)-3-hydroxy-1-phenylbutan-2-yl)-N3-methyl-N3-((4-methylthiazol-2-yl)methyl)isophthalamide] | < 1 | < 0.3 | – | –
CCOc1cccc(CNCC(O)C(Cc2ccccc2)NC(=O)c2cc(C(=O)NC(C)c3ccccc3)cc(N(C)S(C)(=O)=O)c2)c1 (centres unmarked) [N1-(4-(3-ethoxybenzylamino)-3-hydroxy-1-phenylbutan-2-yl)-5-(N-methylmethylsulfonamido)-N3-(1-phenylethyl)isophthalamide] | < 1 | < 0.3 | – | –
C#Cc1cccc(CNCC(O)C(Cc2ccccc2)NC(=O)c2cc(C(=O)NC(C)c3ccccc3)cc(N(C)S(C)(=O)=O)c2)c1 (centres unmarked) [N1-(4-(3-ethynylbenzylamino)-3-hydroxy-1-phenylbutan-2-yl)-5-(N-methylmethylsulfonamido)-N3-(1-phenylethyl)isophthalamide] | < 1 | < 0.3 | – | –
CC(NC(=O)c1cc(C(=O)NC(Cc2ccccc2)C(O)CNCc2c[nH]cn2)cc(N(C)S(C)(=O)=O)c1)c1ccccc1 (centres unmarked) [N1-(4-((1H-imidazol-4-yl)methylamino)-3-hydroxy-1-phenylbutan-2-yl)-5-(N-methylmethylsulfonamido)-N3-(1-phenylethyl)isophthalamide] | 1 to 5 | 0.301 to 0.5 | – | –
CCOc1cncc(CNCC(O)C(Cc2ccccc2)NC(=O)c2cccc(C(=O)N(C)Cc3nc(C)cs3)c2)c1 (centres unmarked) [N1-(4-((5-ethoxypyridin-3-yl)methylamino)-3-hydroxy-1-phenylbutan-2-yl)-N3-methyl-N3-((4-methylthiazol-2-yl)methyl)isophthalamide] | < 1 | < 0.3 | – | –

Second part, the molecule after the results:

IC50 [1, 2] [µM] | Ki (memapsin 2; read-out: M2K) [µM] | IC50 ([1]; read-out: Cell) [µM] | Ki (memapsin 2; M2K) [µM] | Structure (SMILES)
< 1 | < 0.3 | – | – | COc1cccc(CNCC(O)C(Cc2ccccc2)NC(=O)c2cc(C(=O)N(C)Cc3nc(C)cs3)cc([N+](=O)[O-])c2)c1 (centres unmarked) [N1-(3-hydroxy-4-(3-methoxybenzylamino)-1-phenylbutan-2-yl)-N3-methyl-N3-((4-methylthiazol-2-yl)methyl)-5-nitroisophthalamide]
1 to 5 | > 0.501 | – | – | COC1CCCC(CNCC(O)C(Cc2ccccc2)NC(=O)c2cc(C(=O)NC(C)c3ccccc3)cc(N(C)S(C)(=O)=O)c2)C1 (centres unmarked) [N1-(3-hydroxy-4-((3-methoxycyclohexyl)methylamino)-1-phenylbutan-2-yl)-5-(N-methylmethylsulfonamido)-N3-(1-phenylethyl)isophthalamide]
< 1 | < 0.3 | – | – | Cc1csc(CN(C)C(=O)c2cccc(C(=O)NC(Cc3ccccc3)C(O)CNCc3cncc(OC(C)C)c3)c2)n1 (centres unmarked) [N1-(3-hydroxy-4-((5-isopropoxypyridin-3-yl)methylamino)-1-phenylbutan-2-yl)-N3-methyl-N3-((4-methylthiazol-2-yl)methyl)isophthalamide]
< 1 | < 0.3 | – | – | C#Cc1cccc(CNCC(O)C(Cc2ccccc2)NC(=O)c2cccc(C(=O)N(C)Cc3nc(C)cs3)c2)c1 (centres unmarked) [N1-(4-(3-ethynylbenzylamino)-3-hydroxy-1-phenylbutan-2-yl)-N3-methyl-N3-((4-methylthiazol-2-yl)methyl)isophthalamide]
< 1 | < 0.3 | – | – | CCOc1cncc(CNCC(O)C(Cc2ccccc2)NC(=O)c2cc(C(=O)NC(C)c3ccccc3)cc(N(C)S(C)(=O)=O)c2)c1 (centres unmarked) [N1-(4-((5-ethoxypyridin-3-yl)methylamino)-3-hydroxy-1-phenylbutan-2-yl)-5-(N-methylmethylsulfonamido)-N3-(1-phenylethyl)isophthalamide]
< 1 | < 0.3 | – | – | CC(NC(=O)c1cc(C(=O)NC(Cc2ccccc2)C(O)CNCc2ccc3c(c2)OCO3)cc(N(C)S(C)(=O)=O)c1)c1ccccc1 (centres unmarked) [N1-(4-(benzo[d][1,3]dioxol-5-ylmethylamino)-3-hydroxy-1-phenylbutan-2-yl)-5-(N-methylmethylsulfonamido)-N3-(1-phenylethyl)isophthalamide]
< 1 | < 0.3 | – | – | COc1cccc(CNCC(O)C(Cc2ccccc2)NC(=O)c2cccc(C(=O)N(C)Cc3nc(C)oc3C)c2)c1 (centres unmarked) [N1-((2,5-dimethyloxazol-4-yl)methyl)-N3-(3-hydroxy-4-(3-methoxybenzylamino)-1-phenylbutan-2-yl)-N1-methylisophthalamide]
< 1 | < 0.3 | – | – | CCc1csc(CN(C)C(=O)c2cccc(C(=O)NC(Cc3ccccc3)C(O)CNCc3cccc(OC)c3)c2)n1 (centres unmarked) [N1-((4-ethylthiazol-2-yl)methyl)-N3-(3-hydroxy-4-(3-methoxybenzylamino)-1-phenylbutan-2-yl)-N1-methylisophthalamide]
< 1 | < 0.3 | – | – | CCN(Cc1nc(C)cs1)C(=O)c1cccc(C(=O)NC(Cc2ccccc2)C(O)CNCc2cccc(OC)c2)c1 (centres unmarked) [N1-ethyl-N3-(3-hydroxy-4-(3-methoxybenzylamino)-1-phenylbutan-2-yl)-N1-((4-methylthiazol-2-yl)methyl)isophthalamide]
